These results are taken from patent US7642369B2, “Epoxyketone-based immunoproteasome inhibitors” (University of Kentucky Research Foundation, priority 2006, dated 2010).

The IC50 is the concentration needed to halve the response being measured. Low readings indicate greater potency, high ones weaker potency.

In test [1] the test system is proteasome subunits LMP7/X and LMP2. The test is described as follows: Competition screening assay in EL4 cells with biotin-dihydroeponemycin probe, streptavidin-HRP western blot. Conditions: for Proteasome subunit binding and specificity, competition against biotin-dihydroeponemycin labelling: EL4 cells, 30 min pre-incubation, 1 hr probe, western blot. In kind it is binding, Murine. How it is done: (§1) Med. Chem. Lett. 9, 3335-3340 (1999) (herein incorporated by reference); and “Towards Immunoproteasome-Specific Inhibitors: An Improved Synthesis of Dihydroeponemycin.” Specifically, various concentrations of these compounds were pre-incubated in EL4 cells at 37° C. for 30 min. […] After cells were lysed, whole cell lysates were analyzed using 12% SDS-PAGE and transferred to PVDF membranes. Biotinylated proteins were then visualized using streptavidin-horseradish peroxidase (HRP) and enhanced chemiluminescence (ECL).
(§2) The western blots were performed using EL4 cells pre-incubated with proteasome inhibitors for 30 min before treating with biotinylated compounds. After 1 hr incubation, cells were lysed, and analyzed by western blot using streptavidin-HRP and ECL.
Similar competition assays were performed to screen for immunoproteasome inhibitors in a EL4 cell model system. EL4 cell system was chosen since these cells highly express catalytic subunits of both the constitutive and immunoproteasomes.
(§3) Cell Culture and Screening Assay: Murine lymphoma EL4 (ATCC) cells were grown in RPMI medium (Gibco), 10% fetal bovine serum and 1% penicillin and streptomycin at […] in a 5% CO2 incubator. […] The cells were then incubated for an additional 1 hour. Cell lysates were analyzed by 12% SDS-PAGE and transferred to PVDF membrane. Proteins that were covalently modified by biotinylated compounds were visualized by enhanced chemiluminescence using streptavidin conjugated horseradish peroxidase (Sigma-Aldrich) or anti-LMP2 (Affinity BioReagents) and Biomax X-ray film (Kodak).

The next test concerns 20S immunoproteasome. The test is described as follows: Enzyme kinetics: inhibition of chymotrypsin-like activity of purified 20S immunoproteasome, fluorogenic substrate Suc-Leu-Leu-Val-Tyr-AMC. In kind it is biochemical, bovine. Conditions: for Kobs/[I], 20S immunoproteasome: purified 20S immunoproteasome; for Relative selectivity: immunoproteasome/regular proteasome, normalized against epoxomicin. Here is the method:
(§4) Since LMP2 is a major catalytic subunit responsible for chymotrypsin-like activity, inactivation of the LMP2 subunit inhibits proteolytic activity of immunoproteasome. […] Enzyme kinetics experiments were also carried out with the purified 20S constitutive proteasome as control.
(§5) Enzyme kinetics were performed by measuring the chymotrypsin-like activity of 20S immunoproteasome and regular proteasome in the presence of compound 15 using a fluorogenic peptide substrate.
(§6) Enzyme Kinetic Studies: kassociation values were determined as follows. Inhibitors were mixed with a fluorogenic peptide substrate and assay buffer [20 mM Tris (pH 8.0), 0.5 mM EDTA, and 0.035% SDS] in a 96-well plate. The chymotrypsin-like activity was assayed using the fluorogenic peptide substrates Suc-Leu-Leu-Val-Tyr-AMC (Sigma-Aldrich). Hydrolysiswas initiated by the addition of bovine 20S proteasome or immunoproteasome (Biomol International), and the reaction was followed by fluorescence (360-nm excitation/460-nm detection) using a Microplate Fluorescence Reader (FL600; Bio-Tek Instruments, Inc., Winnoski, Vt.) employing the software KC4 v.2.5 (Bio-Tek Instruments, Inc., Winooski, Vt.). Reactions were allowed to proceed for 60-90 min, and fluorescence data were collected every 1 min. Fluorescence was quantified as arbitrary units and progression curves were plotted for each reaction as a function of time. kobserved/[I] values were obtained using PRISM program by nonlinear least squares fit of the data to the following equation: fluorescence=vst+[(v0−vs)/kobserved][1−exp(−kobserved t)], where v0 and vs are the initial and final velocities, respectively, and kobserved is the reaction rate constant. […] Reactions were performed using inhibitor concentrations that were <100-fold of those of the proteasome assayed.

The next test deals with T1, LMP2 subunit (Mus musculus, UniProt O35955+P28076).
T1 construct: sufficient to modify LMP2 subunits present in cells; endogenous in cells; host or cells: EL4 murine lymphoma cells (ATCC)
The test is described as follows: LMP2 mobility shift in EL4 cells, western blot with anti-LMP2 antibody. In kind it is binding, Murine. Conditions: 1 hr at 37° C.; for Covalent modification of LMP2, mobility shift of adduct on SDS PAGE: anti-LMP2 western blot. Here is the method: The mobility shift of LMP2:15 adduct was investigated to further verify that compound 15 covalently modifies the LMP2 subunit (FIG. 5). After EL4 cells were incubated with compound 15 or assay probes (Biotin-EPX and Biotin-EPN) for 1 hr at 37° C., cells were lysed and boiled for 15 min. Whole cell proteins were then analyzed by western blot using anti-LMP2 antibody.
Since molecular weights of the LMP2 subunit are increased by 828.08 (for biotin-epoxomicin) and 1078.45 (for biotin-dihydroeponemycin), assay probe-LMP2 adducts are expected to show a slower mobility as compared to free LMP2 (lanes 1-3, FIG. 5). […] It can be explained by a smaller molecular weight of compound 15 (484.76) compared to assay probes (828.08 and 1078.45). […] LMP2 inhibitor efficiently blocks the proteolytic activity of immunoproteasome with high specificity. Screening assay and mobility shift studies have shown that compound 15 selectively inactivates the LMP2 subunit via covalent modification. Since LMP2 is a major catalytic subunit responsible for chymotrypsin-like activity, inactivation of the LMP2 subunit inhibits proteolytic activity of immunoproteasome. Confirmation of this is provided by enzyme kinetics studies performed using purified 20S immunoproteasome. Enzyme kinetics experiments were also carried out with the purified 20S constitutive proteasome as control.
as §3
Background: A western blot detects proteins with antibodies after separation by electrophoresis.

In a further test the target is T2, 20S regular proteasome (Bos taurus, UniProt Q2TBX6+Q32KL2).
T2 construct: purchased Biomol International
The test is described as follows: Enzyme kinetics: inhibition of chymotrypsin-like activity of purified 20S constitutive (regular) proteasome, fluorogenic substrate Suc-Leu-Leu-Val-Tyr-AMC. In kind it is biochemical, bovine. Conditions: for kinact/KI: read-out: Kobs/[I], 20S regular proteasome. How it is done: as §4, §5, §6

Test [2] concerns proteasome subunits Z, MECL1, LMP7 and X. The test is described as follows: Competition screening assay in EL4 cells with biotin-epoxomicin probe, streptavidin-HRP western blot. Format: binding, Murine. Conditions: 30 min pre-incubation, 1 hr probe. Here is the method: as §1, §2
Preincubation of EL4 cells with 1 μM of compound 15 (one equivalent of assay probe) was sufficient to selectively modify the catalytic threonine residue of LMP2 subunit, thereby preventing further modification of LMP2 subunit by biotin-dihydroeponemycin, resulting in selective attenuation of LMP2 protein band on western blot.
Cell Culture and Screening Assay: Murine lymphoma EL4 (ATCC) cells were grown in RPMI medium (Gibco), 10% fetal bovine serum and 1% penicillin and streptomycin at […] in a 5% CO2 incubator. […] Cell lysates were analyzed by 12% SDS-PAGE and transferred to PVDF membrane. […]

For a further test, the system named is PC3 (Prostate). The test is described as follows: Cell proliferation assay by counting cell numbers after 24 h incubation. Format: cell-based. Conditions: cell number after 24 h incubation. Here is the method:
(§7) To compare the efficacy of the present LMP2 inhibitor compounds and, in particular, LMP2 inhibitor 15, as compared to prior known inhibitors, comparative tests were conducted using compound 21 in expressing tumor cells. LMP2 inhibitor compound 21 blocked proliferation of lung cancer H460, prostate cancer cells PC3 and multiple myeloma cells RPMI8226, as summarized in Table 2, below.

The subject of the next test is RPMI8226 (MM). The test is described as above. In kind it is cell-based. Conditions: cell number after 24 h incubation. Here is the method: as §7
Another test has as its system H460 (Lung). The description is as above. Format: cell-based. Conditions: cell number after 24 h incubation. How it is done:
as §7

The next test concerns WI-38 (Fibroblast). Described as above. In kind it is cell-based. Conditions: cell number after 24 h incubation.

Molecules are shown by their SMILES. Entries after “also recorded” stand apart in the source; their conditions may differ. Where two headings read alike, the source gives them in different places.

As to `CCCCCCC(=O)N[C@@H](C)C(=O)N[C@@H](CC(C)C)C(=O)[C@@]1(CO)CO1` [Compound 9], the “Proteasome subunit binding and specificity, competition against biotin-dihydroeponemycin labelling” value in test [1] is “LMP7/X and LMP2 protein bands are competed away”.

For the molecule `CCCCCCC(=O)N[C@@H](CO)C(=O)N[C@@H](CC(C)C)C(=O)[C@@]1(COCOC)CO1` [Compound 11], the “Proteasome subunit binding and specificity, competition against biotin-dihydroeponemycin labelling” value in test [1] is “do not selectively target proteasome subunits; also recorded: dramatic loss in the potency and specificity compared to dihydroeponemycin”.

Take `CCCCCCC(=O)N[C@@H](CO)C(=O)N[C@@H](CC(C)C)C(=O)[C@@]1(COCOCCOC)CO1` [Compound 12]: in [1], the “Proteasome subunit binding and specificity, competition against biotin-dihydroeponemycin labelling” value is “selectively targeting the immunoproteasome subunit LMP2; also recorded: high specificity towards LMP2 was achieved”.

`CCCCCCC(=O)N[C@@H](C)C(=O)N[C@@H](CC(C)C)C(=O)[C@@]1(CO[Si](C)(C)C(C)(C)C)CO1` [Compound 15]: the “Concentration sufficient to selectively modify the catalytic threonine residue of LMP2 subunit” value in [1] (EL4 cells preincubated, one equivalent of assay probe (biotin-dihydroeponemycin)) was 1 µM. Besides, the “Proteasome subunit binding and specificity, competition against biotin-dihydroeponemycin labelling” value in [1] is “selectively targeting the immunoproteasome subunit LMP2; also recorded: even higher specificity towards the LMP2 subunit was obtained”. Also, the “Kobs/[I], 20S immunoproteasome” value in the test on 20S immunoproteasome (chymotrypsin-like activity) worked out at 83 ± 27 M^−1S^−1. In the test on 20S immunoproteasome (chymotrypsin-like activity, versus dihydroeponemycin), the “higher selectivity toward the 20S immunoproteasome in comparison to dihydroeponemycin” value is on record as 5 fold. In addition, in the test with 20S immunoproteasome (chymotrypsin-like activity, versus epoxomicin), the “higher selectivity toward the 20S immunoproteasome in comparison to epoxomicin” value was determined as 24 fold. In the test with 20S immunoproteasome (fluorogenic peptide substrate), the “Inhibition of chymotrypsin-like activity of 20S immunoproteasome (in words)” value was “displayed a better inhibitory activity against the immunoproteasome; also recorded: time- and concentration-dependent inhibition”. Further, in the test on 20S immunoproteasome, the Relative selectivity is recorded as 24. Further, the “Covalent modification of LMP2, mobility shift of adduct on SDS PAGE” value is recorded as “covalently modify the immunoproteasome subunit LMP2” at LMP2 subunit and “slower mobility for the LMP2-15 adduct on SDS PAGE was clearly shown as compared to free LMP2” at LMP2 subunit (listed as compound 15). Also, the “Concentration sufficient to modify LMP2 subunits present in cells” value on LMP2 subunit (mobility shift) was found to be 1 µM. Besides, the “Inhibition of chymotrypsin-like activity of 20S regular proteasome (in words)” value on 20S regular proteasome (fluorogenic peptide substrate) is on record as “poorly inhibited the chymotrypsin-like activity of 20S regular proteasome”. On 20S regular proteasome, the kinact/KI worked out at 49 ± 18 M⁻¹ s⁻¹.

Regarding `CC(C)CCCCC(=O)N[C@@H](CO)C(=O)N[C@@H](CC(C)C)C(=O)[C@@]1(CO)CO1` [Dihydroeponemycin, dihydroeponemycin, reference compound], the “Proteasome subunit binding and specificity, competition against biotin-dihydroeponemycin labelling” value in test [1] is “LMP7/X and LMP2 protein bands are competed away; also recorded: do not have specificity towards subunits of either the constitutive or immunoproteasomes”. Further, the “Kobs/[I], 20S immunoproteasome” value in the test with 20S immunoproteasome (chymotrypsin-like activity) is given as 251 ± 121 M^−1S^−1. The same molecule yielded a Relative selectivity with 20S immunoproteasome of 5. The kinact/KI at 20S regular proteasome (chymotrypsin-like activity, purified 20S constitutive proteasome) was found to be 721 ± 84 M⁻¹ s⁻¹.

For `CC[C@H](C)[C@H](NC(=O)[C@H]([C@@H](C)CC)N(C)C(C)=O)C(=O)N[C@H](C(=O)N[C@@H](CC(C)C)C(=O)[C@@]1(C)CO1)[C@@H](C)O` [Epoxomicin, epoxomicin], the “Kobs/[I], 20S immunoproteasome” value in the test with 20S immunoproteasome (chymotrypsin-like activity) is recorded as 3,044 ± 1,423 M^−1S^−1. Besides, the “Proteasome subunit binding, competition against biotin-epoxomicin labelling” value in test [2] is “proteasome subunit (Z, MECL1, LMP7 and X) bands are efficiently competed away”; in test [2] (listed as epoximicin), “do not have specificity towards subunits of either the constitutive or immunoproteasomes”. Besides, the IC50 in the test with PC3 (Prostate) came out at 0.01 µM; with RPMI8226 (MM) it was 0.1 µM; with H460 (Lung), 0.1 µM; in the test on WI-38 (Fibroblast), 0.028 µM.
